Experimental data taken from patent publication US6900210B2, “Pyridinyl, pyrimidinyl and pyrazinyl amides as potassium channel openers” (Bristol-Myers Squibb Company, priority 2002, dated 2005).

What was measured:
mKCNQ2 channels = target: T1, mKCNQ2 channels (Mus musculus, UniProt Q9Z351); assay: Whole-cell patch-clamp recordings of mKCNQ2 currents; assay type: cell-based; details: HEK 293 stable cell line expressing mKCNQ2; for EC50: @ −40 mV, room temperature; for Imax (%): maximal current from Hill-type fit
T1 construct: expressed in transfected cells
Method: Whole-cell patch-clamp recordings were made from an HEK 293 stable cell line expressing mKCNQ2 channels, maintained in culture for 1-2 days. Patch pipettes had initial resistances of 2.5-4 MQ. Currents were recorded with an EPC9 amplifier (HEKA, Lambrecht, Germany) controlled with software (Pulse, HEKA) run on a standard lab PC. Series resistance compensation was used during current recording, and set at 80%. The series resistance (R) and cell capacitance (C) were determined electronically by subtracting the capacitive currents at the onset and offset of a 5 mV voltage step. The cancellation of wholecell capacitive transients was virtually complete in all cells. Analog current signals were low-pass filtered at 2.9 kHz using a four-pole Bessel filter −3 dB) and stored on a local network server computer at a sampling rate of 1.5 kHz. All recordings were performed at room temperature (20-22° C.). The pipette solution contained (mM): KCl, 150; CaCl2, 2.5; EGTA, 5; MgCl2, 1; HEPES, 10; pH to 7.3 with KOH, and Osmolality of 290-300 mOsm. The extracellular solution contained (mM): NaCl, 140; KCl, 2.5; CaCl2, 2.5; MgCl2, 1; glucose, 10; HEPES, 10; pH to 7.3 with NaOH, and Osmolality of 305-310 mOsm
Concentration response data were generated by measuring the difference in the steady-state amplitude of current in the presence of compound at the end of a 600 ms voltage-clamp step from a holding potential of −80 mV. The concentration-response data were fitted with Hill-type equations: I=Imax/(1+EC50/[A]^nH), where I is the steady-state current at a given concentration of agonist [A]; and Imax, EC50 and nH are parameters estimated from the curve fit. In some cases the concentration-response data were fitted with equations consisting of the sum of two Hill-type components. Current-voltage (IN) relationships for agonist-evoked currents were obtained by performing 600 ms voltage steps (−110 mV to +40 mV) in the absence and presence of agonist.

[1] = test system: nerve injury-induced tactile allodynia; assay: Chung model of neuropathic pain (Chung surgery and von Frey test); assay type: in vivo, Sprague Dawley rats; details: i.v., rat, von Frey thresholds over 90 min, % MPE (Drug AUC) − % MPE (Vehicle AUC)
Method: To test agents for activity against peripheral mononeuropathy nerve injury-induced tactile allodynia, male Sprague Dawley rats (wt. 120-160 g) were surgically prepared with unilateral tight ligation of spinal nerves L5 and L6 following the method of Kim and Chung (Kim S. H., Chung J. M. (1992) Pain, September; 50(3):355-63). After 3-4 weeks recovery, paw withdrawal to light touch was assessed as described by Chaplan et al. (Chaplan S. R., et al., (1994) J. Neurosci Methods, July; 53(1):55-63). In brief, rats are placed in a plastic cage with a wire mesh bottom and allowed to acclimate for 15-30 minutes, until cage exploration and grooming stops. […] After acclimation, baseline von Frey thresholds were assessed for the injured hindpaw at −15 min. […] Following drug administration, von Frey thresholds are measured at 15, 30, 60 and 90 min. Data were analyzed by a 2-way repeated measures analysis of variance followed by Dunnett's test (p<0.05). […]
Reversal of neuropathic pain behavior may be expressed as a percentage (0-100%) of the maximum possible effect, over and above the vehicle effects. […]
For example, a compound which immediately reversed neuropathic pain behavior to normal levels, such that animals only responded to the highest von Frey filament (15 g), and maintained normal levels through out the post-drug testing period (90 min) would be calculated as Δ% MPE=100%.

T1 sequence (Q9Z351 whole entry): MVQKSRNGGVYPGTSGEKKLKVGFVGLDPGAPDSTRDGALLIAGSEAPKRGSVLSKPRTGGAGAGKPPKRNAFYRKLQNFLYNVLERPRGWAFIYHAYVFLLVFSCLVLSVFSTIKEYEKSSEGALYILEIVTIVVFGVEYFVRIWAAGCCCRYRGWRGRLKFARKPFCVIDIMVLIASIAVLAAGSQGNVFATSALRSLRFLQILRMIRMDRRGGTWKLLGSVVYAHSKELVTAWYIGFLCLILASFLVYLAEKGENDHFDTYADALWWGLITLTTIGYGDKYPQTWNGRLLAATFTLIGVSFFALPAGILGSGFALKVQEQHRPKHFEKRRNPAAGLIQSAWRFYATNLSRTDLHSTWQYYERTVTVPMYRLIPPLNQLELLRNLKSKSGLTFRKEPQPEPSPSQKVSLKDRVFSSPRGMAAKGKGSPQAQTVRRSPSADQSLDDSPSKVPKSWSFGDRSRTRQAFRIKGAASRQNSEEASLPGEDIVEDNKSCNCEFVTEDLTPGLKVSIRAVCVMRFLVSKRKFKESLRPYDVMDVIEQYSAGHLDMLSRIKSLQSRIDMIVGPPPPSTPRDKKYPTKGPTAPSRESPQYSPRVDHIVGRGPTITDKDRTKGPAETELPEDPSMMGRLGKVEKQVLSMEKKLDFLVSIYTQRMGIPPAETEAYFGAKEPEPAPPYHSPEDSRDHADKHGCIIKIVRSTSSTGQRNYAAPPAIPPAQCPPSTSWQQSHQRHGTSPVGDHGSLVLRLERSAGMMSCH

| Compound | EC50 (mKCNQ2 channels) | Imax (%) (mKCNQ2 channels) | AUC (Δ % MPE) ([1]; 10 mg/kg) | AUC (Δ % MPE) ([1]; 100 mg/kg) |
| --- | --- | --- | --- | --- |
| C[C@H](NC(=O)/C=C/c1cc(F)ccc1F)c1cccc(Oc2ccccn2)c1 [Example 9, (S)-3-(2,5-Difluoro-phenyl)-N-{1-[3-(pyridin-2-yl-oxy)-phenyl]-ethyl}-acryl-amide] | 0.0012 µM | 200% | – | – |
| C[C@H](NC(=O)/C=C/c1ccccc1F)c1cccc(Oc2cccnc2)c1 [Example 15, (S)-3-(2-Fluoro-phenyl)-N-{1-[3-(py-ridin-3-yloxy)-phen-yl]-ethyl}-acrylamide] | 0.198 µM | 812% | 47 (10 mg/kg, i.v.) Δ % MPE | – |
| C[C@H](NC(=O)/C=C/c1cc(F)ccc1F)c1cccc(Oc2ccncc2)c1 [Example 45, (S)-3-(2,5-Difluoro-phenyl)-N-{1-[3-(pyridin-4-yl-oxy)-phenyl]-ethyl}-acryl-amide] | 0.11 µM | 784% | – | – |
| NCC1(CC(=O)O)CCCCC1 [Gabapentin, gabapentin, reference compound] | – | – | – | 50 (100 mg/kg, i.v.) Δ % MPE |
| (S)-4-Phenyl)-N-[1-(3-py- ridin-3-yl-phenyl)-eth- yl]-butyramide [Example 25] | 0.001 µM | 172% | – | – |
